Test [1] deals with mitochondria. The note with it: energy dependent manner; cited from earlier work.
The subject of test [2] is prostate cancer tumor areas. In words: SPECT imaging of excised intact prostate after intravenous Tc^99Sestamibi, compared with whole mount histopathology. Format: in vivo, human. The note with it: 25mCi i.v. 1-2 hours prior to prostate excision; ex-vivo SPECT of intact prostate; two patients shown. As to the method: Twelve prostate cancer patients were intravenously administered with 25mCi Tc^99Sestamibi 1-2 hours prior to prostate excision. Intact prostates were excised using surgical procedures (Radical Retro pubic Prostatectomy, Radical Cystectomy or Open Prostatectomy)—illustrated in FIG. 3. The intact prostate was imaged by SPECT using a standard dual head gamma camera (millennium, GE) 6° angular step and 40 sec/step. Imaging results were reviewed using both transaxial (FIGS. 4I-N and FIGS. 5C-D) and coronal views (FIGS. 4O-T and FIG. 5E). The nuclear images were processed automatically. The designated green lines seen in FIGS. 4I-M and 4O-R and 5C and 5E were produced following an automatic search for maximal intensity voxel. Contours were determined at 90% maximal intensity. Following imaging, prostate tissue was sliced transversely from bladder neck (base) to apex. Whole mount histopathology was carried out as described in Example 1.

The values that follow come from US20080260637A1, “Methods of Detecting Prostate Cancer” (priority 2004, published 2008).

Regarding `[C-]#[N+]CC(C)(C)OC.[C-]#[N+]CC(C)(C)OC.[C-]#[N+]CC(C)(C)OC.[C-]#[N+]CC(C)(C)OC.[C-]#[N+]CC(C)(C)OC.[C-]#[N+]CC(C)(C)OC.[Tc]` [Tc^99Sestamibi], the “fraction of agent taken up by mitochondria” value in test [1] was “more than 90%”. The “identification of tumor areas by SPECT scanning” value in test [2] is “identified tumor areas as corroborated by whole mount histopathology”.
